Values of other authors as cited in US20110318267A1, “PH-RESPONSIVE NANOSTRUCTURES” (PRESIDENT AND FELLOWS OF HARVARD COLLEGE, priority 2008, published 2011).

C=C(C)C(=O)OCCN(C)C [DMAEMA, dimethylaminoethyl methacrylate]
pKa: 7.5
